This note sets out measurements from patent publication US8889704B2 (Array BioPharma Inc., priority 2011, dated 2014).

Structures can show the parent of a compound that is named as a salt.

Assay type in all cases: biochemical
For assay [1], the target named is recombinant rat PIM-3 (Rattus norvegicus, UniProt O70444). The assay is described as follows: PIM-3 Assay (as Example A). To be noted: averaged IC50; 30 μM ATP, 3.75 μM PIM2tide, 0.5 nM PIM-3. A digest of the protocol:
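33P incorporation from 30 μM [γ-33P]ATP into 3.75 μM PIM2tide by 0.5 nM rat PIM-3, 60 min at 22 °C in pH 7.4 MOPS buffer, read by P81 filter capture and scintillation counting. Compounds tested in 3-fold dilutions up to 10 μM final, 2% DMSO; percent-of-control data fitted by 4-parameter logistic for IC50.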

Assay [2] addresses T1, GST-tagged recombinant full-length human Pim-2 (Homo sapiens, UniProt Q9P1W9).
T1 construct: GST-tagged recombinant full-length human Pim-2; GST
The assay is described as follows: PIM-2 Assay (as Example A). Conditions: averaged IC50; 4 μM ATP, 1.0 μM PIM2tide, 1.5 nM Pim-2. A digest of the protocol:
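IC50 was derived by 4-parameter logistic fitting of percent-of-control data over a 10-point, 3-fold series (highest 10 μM, 2% DMSO). Reactions held 1.5 nM GST-Pim-2 (full-length, human), 4 μM [γ-33P]ATP and 1.0 μM PIM2tide for 60 min at 22 °C, pH 7.4; 33P-peptide captured on P81 filters.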

The target of assay [3] is PIM-1 (Homo sapiens, UniProt P11309). The assay is described as follows: Enzyme PIM-1 Assay ([33P]ATP incorporation into PIM2tide, filter plate). Conditions: averaged IC50; 35 μM ATP, 7.5 μM PIM2tide, 0.25 nM PIM-1, 60 min at 22° C. In a few lines: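 Ten-point, 3-fold dilution series (10 μM top, 2% DMSO final) tested for inhibition of 33P transfer from 35 μM ATP to 7.5 μM PIM2tide by 0.25 nM PIM-1. Reaction 60 min, 22 °C, pH 7.4 MOPS/MgCl2 buffer; phosphocellulose capture, scintillation counting, IC50 where fitted POC equals 50.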
Chain of PIM-1 (P11309 whole entry, species assumed): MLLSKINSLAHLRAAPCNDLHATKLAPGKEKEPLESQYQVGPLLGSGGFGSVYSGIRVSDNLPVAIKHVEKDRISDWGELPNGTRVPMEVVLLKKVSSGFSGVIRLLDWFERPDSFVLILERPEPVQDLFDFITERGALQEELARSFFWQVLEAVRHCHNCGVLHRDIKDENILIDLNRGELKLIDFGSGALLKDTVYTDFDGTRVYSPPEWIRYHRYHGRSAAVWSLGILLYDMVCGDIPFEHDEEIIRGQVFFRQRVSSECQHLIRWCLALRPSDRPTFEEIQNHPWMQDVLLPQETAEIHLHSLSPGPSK

T1 sequence (Q9P1W9 whole entry): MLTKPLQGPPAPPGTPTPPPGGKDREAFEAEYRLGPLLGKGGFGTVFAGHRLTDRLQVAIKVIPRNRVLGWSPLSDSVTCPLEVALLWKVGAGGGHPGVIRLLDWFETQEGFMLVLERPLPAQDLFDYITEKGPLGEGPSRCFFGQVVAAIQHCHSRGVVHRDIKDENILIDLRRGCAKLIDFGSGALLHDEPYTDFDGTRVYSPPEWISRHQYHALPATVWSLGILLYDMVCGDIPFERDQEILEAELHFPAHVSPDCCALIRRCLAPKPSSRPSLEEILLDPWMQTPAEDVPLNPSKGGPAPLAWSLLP

Broadly, the IC50 is the concentration that inhibits the measured activity by half. Turning to `CC(C)(C)c1cccc2ccc(-c3nnc4ccc([C@@H](N5C[C@@H](O)[C@H](O)C5)C(F)(F)F)cn34)nc12` [Example 74, (3R,4R)-1-((R)-1-(3-(8-tert-butylquinolin-2-yl)-[1,2,4]triazolo[4,3-a]pyridin-6-yl)-2,2,2-trifluoroethyl)pyrrolidine-3,4-diol], the IC50 in assay [1] came out at 6.7 nM; in assay [2], 41 nM; in assay [3], 0.09 nM.

As for `CC(C)Oc1c(C#N)ccc2ccc(-c3nnc4ccc([C@@H](N5CC[C@H](N)C5)C(F)(F)F)cn34)nc12` [Example 75, 2-(6-((R)-1-((S)-3-aminopyrrolidin-1-yl)-2,2,2-trifluoroethyl)-[1,2,4]triazolo[4,3-a]pyridin-3-yl)-8-isopropoxyquinoline-7-carbonitrile dihydrochloride], the values for the IC50 in assay [1], in assay [2] and in assay [3] were 18 nM, above 100 nM and 1.84 nM, respectively.

Regarding `FC(F)(F)[C@H](c1ccc2nnc(-c3ccc4cccc(OCC5CC5)c4n3)n2c1)N1C[C@@H]2C[C@H]1CN2` [Example 76, 2-(6-((S)-1-((1S,4S)-2,5-diazabicyclo[2.2.1]heptan-2-yl)-2,2,2-trifluoroethyl)-[1,2,4]triazolo[4,3-a]pyridin-3-yl)-8-(cyclopropylmethoxy)quinoline dihydrochloride], the IC50 in assay [1] amounted to 3.6 nM; in assay [2], 52 nM; in assay [3], 0.4 nM.

In the case of `FC(F)(F)[C@H](c1ccc2nnc(-c3ccc4ccc(C5CC5)cc4n3)n2c1)N1C[C@@H]2C[C@H]1CN2` [Example 77, 2-(6-((S)-1-((1S,4S)-2,5-diazabicyclo[2.2.1]heptan-2-yl)-2,2,2-trifluoroethyl)-[1,2,4]triazolo[4,3-a]pyridin-3-yl)-7-cyclopropylquinoline dihydrochloride], the IC50 in assay [1] amounted to 0.3 nM; in assay [2], 10 nM; in assay [3] it was 0.16 nM.

Consider `O[C@@H]1CN([C@H](c2ccc3nnc(-c4ccc5cccc(C6CC6)c5n4)n3c2)C(F)(F)F)C[C@H]1O` [Example 78, (3R,4R)-1-((R)-1-(3-(8-cyclopropylquinolin-2-yl)-[1,2,4]triazolo[4,3-a]pyridin-6-yl)-2,2,2-trifluoroethyl)pyrrolidine-3,4-diol], for which the figures for the IC50 in assay [1], in assay [2] and in assay [3] were 10 nM, above 100 nM and 0.24 nM, respectively.

On to `CCOc1cccc2ccc(-c3nnc4ccc([C@@H](N5CC[C@H](N)C5)C(F)(F)F)cn34)nc12` [Example 79, (S)-1-((R)-1-(3-(8-ethoxyquinolin-2-yl)-[1,2,4]triazolo[4,3-a]pyridin-6-yl)-2,2,2-trifluoroethyl)pyrrolidin-3-amine], for which the IC50 came to 3 nM in assay [1], 58 nM in assay [2] and 0.16 nM in assay [3].

Turning to `COc1cccc2ccc(-c3nnc4ccc([C@@H](N5CC[C@H](NCCF)C5)C(F)(F)F)cn34)nc12` [Example 80, (S)—N-(2-fluoroethyl)-1-((R)-2,2,2-trifluoro-1-(3-(8-methoxyquinolin-2-yl)-[1,2,4]triazolo[4,3-a]pyridin-6-yl)ethyl)pyrrolidin-3-amine dihydrochloride], the IC50 was 32 nM in assay [1], above 100 nM in assay [2] and 6.41 nM in assay [3].

For the molecule `CC(C)Oc1cccc2ccc(-c3nnc4ccc([C@@H](N5CC[C@H](NCCF)C5)C(F)(F)F)cn34)nc12` [Example 81, (S)—N-(2-fluoroethyl)-1-((R)-2,2,2-trifluoro-1-(3-(8-isopropoxyquinolin-2-yl)-[1,2,4]triazolo[4,3-a]pyridin-6-yl)ethyl)pyrrolidin-3-amine dihydrochloride], the 50% inhibitory concentration (IC50) in assay [1] is 2.8 nM; in assay [2], above 100 nM; in assay [3], 0.37 nM.
